# According to PMC12067350, “Discovery of Thieno[3,2‑b]pyridine-5-carboxamide and 2,3-Difluorobenzamide Negative Allosteric Modulators of Metabotropic Glutamate Receptor Subtype 5” (ACS Medicinal Chemistry Letters, 2025):
# How the values were obtained:
# [1] = Rat IV/PO pharmacokinetics; format: in vivo, Sprague-Dawley rat; settings: plasma, IV 1 mg/kg; for MRT / clearance / half-life / Vd: male Sprague-Dawley rats (n = 2); for clearance: read-out: CLp; for half-life: read-out: Elim. t 1/2 (converted); for Vd: read-out: V ss
# Procedure: (1700 rcf, 5 minutes, 4 °C) to obtain plasma sample. […]
# All brain and plasma samples were stored at -80 °C until analysis by LC-MS/MS.
# Male Sprague-Dawley rats were used for discrete pharmacokinetic studies. Compounds in ethanol:
# PEG400: saline (1:4:5 v/v/v) were administered intra-venously in two rats at 1 mg/kg (IV PK). Two rats were also gavaged at 10 mg/kg with compounds in 10% Tween 80 in water (PO PK). Blood samples were collected from all […] at […] different time points post-dose (0.25, 0.50, 1.0, 2.0, 4.0, 7.0 and 24 hr) and plasma was prepared as described above. The concentration of compounds in plasma was quantified by LC/MS/MS as described below.
# The IV PK experiment was used to determine clearance, Volume of distribution and half-life. The PO experiments were used to determine exposure and oral bioavailability. PK parameters were calculated using Phoenix WinNonlin software (version 8.1).
# Samples preparation for bioanalysis
# Plasma samples from the in-life phase of the study were thawed at ambient temperature (benchtop), and then aliquots (20 µL per sample) were transferred to a 96-shallow-well (V-bottom) plate. Matrix-matched quality control (QC) samples and standard curves of VU6031545 and VU6024945 (1 mg/mL DMSO stock solution) were prepared in blank rat plasma (K2EDTA-treated) or blank brain homogenate via serial dilution and transferred (20 µL each) to the plate along with multiple blank plasma and brain homogenate samples. Acetonitrile (120 µL) containing IS (10 nM carbamazepine) was added to each well of the plate to precipitate protein. The plate was then centrifuged (4000 rcf, 5 minutes, ambient temperature), and resulting supernatants (60 µL each) were transferred to a new 96-shallow-well (V-bottom) plate containing an equal volume (60 µL per well) of water (Milli-Q purified). The plate was then sealed in preparation for LC-MS/MS analysis. […]
# CYP1A2 = target: T1, CYP1A2 (Homo sapiens, UniProt P05177); test: Cytochrome P450 inhibition using human liver microsomes, CYP1A2; format: in vitro ADME; settings: read-out: CYP 450 IC50, 1A2
# T1 construct: from tissue; host or cells: human liver microsomes
# T1 sequence (P05177 1-516): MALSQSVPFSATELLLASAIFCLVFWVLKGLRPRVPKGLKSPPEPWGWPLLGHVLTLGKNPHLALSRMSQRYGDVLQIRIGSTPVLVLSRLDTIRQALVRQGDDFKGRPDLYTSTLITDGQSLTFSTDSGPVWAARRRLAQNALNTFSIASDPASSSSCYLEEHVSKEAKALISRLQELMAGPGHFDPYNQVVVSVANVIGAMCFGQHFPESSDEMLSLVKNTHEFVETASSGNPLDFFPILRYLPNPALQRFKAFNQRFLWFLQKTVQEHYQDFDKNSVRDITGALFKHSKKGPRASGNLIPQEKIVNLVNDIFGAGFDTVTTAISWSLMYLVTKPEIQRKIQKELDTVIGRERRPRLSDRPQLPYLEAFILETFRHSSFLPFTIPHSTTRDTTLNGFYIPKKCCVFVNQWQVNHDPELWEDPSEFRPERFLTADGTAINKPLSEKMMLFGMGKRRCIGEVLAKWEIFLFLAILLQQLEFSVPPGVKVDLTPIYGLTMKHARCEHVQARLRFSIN
# Procedure: (§1) Cytochrome P450 inhibition using Liver Microsomes.
# (§2) The ability of compounds to inhibit cytochrome P450s (CYPs) was tested using human liver microsomes and a cocktail of substrates specific for CYP1A2, 2C9, 2D6 and 3A4. Compounds were incubated at 37C in presence of human liver microsomes (0.1 mg/ml) at 30, 10, 3, 1, 0.3 and 0.1 µM. A cocktail of substrate was also added for each CYP tested: phenacetin (10 µM, CYP1A2), diclofenac (5 µM, CYP2C9), dextromethorphan (5 µM, CYP2D6) and midazolam (2 µM, CYP3A4). HLM were also incubated with the control inhibitor miconazole at 3, 1, 0.3, 0.1, 0.03 and 0.01 µM. […]
# (§3) The concentrations of CYP-specific metabolites generated at the end of the reaction were quantified by mass spectrometry using standard curves for each metabolite: acetaminophen (CYP1A2), 4-hydroxydiclofenac (CYP2C9), dextrophan (CYP2D6) and 1-hydroxymidazolam (CYP3A4). A concentration response curve for each metabolite was generated and IC50s were calculated using Prism. The LC-MS/MS transitions for metabolite quantifications are as follows. […]
# (§4) Prepared samples were injected (10 µL each) onto an AB Sciex Triple Quad 4500 mass spectrometer system with an Agilent 1260 Infinity II pump and autosampler. […] Quantitation of compounds was performed via AB Sciex Multiquant software using the raw analyte:IS peak area ratios. […]
# CYP3A4 = target: T2, CYP3A4 (Homo sapiens, UniProt P08684); test: Cytochrome P450 inhibition using human liver microsomes, CYP3A4; format: in vitro ADME; settings: read-out: CYP 450 IC50, 3A4
# T2 construct: from tissue; host or cells: human liver microsomes
# Procedure: as §1, §2, §3, §4
# CYP2C9 = target: T3, CYP2C9 (Homo sapiens, UniProt P11712); test: Cytochrome P450 inhibition using human liver microsomes, CYP2C9; format: in vitro ADME; settings: read-out: CYP 450 IC50, 2C9
# T3 construct: from tissue; host or cells: human liver microsomes
# [2] = male Sprague-Dawley rats, PO 10 mg/kg, read-out: %F (oral bioavailability)
# T2 sequence (P08684 whole entry): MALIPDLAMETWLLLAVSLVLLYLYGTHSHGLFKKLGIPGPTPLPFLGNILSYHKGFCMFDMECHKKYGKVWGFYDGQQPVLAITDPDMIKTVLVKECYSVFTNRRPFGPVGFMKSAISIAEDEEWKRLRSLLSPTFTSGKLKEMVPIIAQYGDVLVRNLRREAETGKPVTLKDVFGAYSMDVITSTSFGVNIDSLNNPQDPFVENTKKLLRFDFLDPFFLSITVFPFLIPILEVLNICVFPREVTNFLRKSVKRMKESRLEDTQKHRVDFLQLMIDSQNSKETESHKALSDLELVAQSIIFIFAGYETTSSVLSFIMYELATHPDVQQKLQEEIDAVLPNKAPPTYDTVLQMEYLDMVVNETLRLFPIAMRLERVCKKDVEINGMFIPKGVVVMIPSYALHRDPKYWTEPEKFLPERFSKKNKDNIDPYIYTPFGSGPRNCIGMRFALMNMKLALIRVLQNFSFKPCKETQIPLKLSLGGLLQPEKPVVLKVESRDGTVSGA
# T3 sequence (P11712 whole entry): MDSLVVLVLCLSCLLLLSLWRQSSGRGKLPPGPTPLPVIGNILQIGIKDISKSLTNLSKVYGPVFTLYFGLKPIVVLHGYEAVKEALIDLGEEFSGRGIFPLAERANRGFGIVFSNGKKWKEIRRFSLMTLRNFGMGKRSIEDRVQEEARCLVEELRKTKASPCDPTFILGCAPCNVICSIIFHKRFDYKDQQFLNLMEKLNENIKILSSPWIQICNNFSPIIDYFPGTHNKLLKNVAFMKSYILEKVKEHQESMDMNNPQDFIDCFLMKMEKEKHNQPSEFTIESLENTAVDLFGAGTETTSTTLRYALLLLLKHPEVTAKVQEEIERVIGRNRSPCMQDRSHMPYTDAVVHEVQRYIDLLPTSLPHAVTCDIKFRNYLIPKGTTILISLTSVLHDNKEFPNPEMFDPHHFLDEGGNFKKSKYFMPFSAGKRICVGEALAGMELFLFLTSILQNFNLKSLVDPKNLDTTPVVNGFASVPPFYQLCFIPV
Structure (SMILES),MRT [1] [h],clearance [1] [mL/min/kg],half-life [1] [h],Vd [1] [L/kg],"bioavailability [1, 2] [%]",IC50 (CYP1A2) [µM],IC50 (CYP3A4) [µM],IC50 (CYP2C9) [µM],"bioavailability at 24 h [1, 2] [%]"
Cc1csc(NC(=O)c2cc(O[C@@H]3CCOC3)c3sccc3n2)n1 [19aA],2.45,49.3,3.42,6.67,> 100,1.2,> 30,> 30,
Cc1csc(NC(=O)c2cc(O[C@@H]3CCOC3)cc(F)c2F)n1 [27cA],1.44,31.3,1.78,2.89,17,1.3,> 30,> 30,16.6
